Like-named read-outs stand apart in the source and are kept apart here.
Experiments:
[1] = tested on: HT (diffuse large B-cell lymphoma, subtype—germinal center B-cell); test: MTT cytotoxicity assay, HT lymphoma cell line; assay type: cell-based; conditions: Homo sapiens, 72 h, HT cells, three days, read-out: Lymphoma cell lines GI50, HT
From the text: (§1) Cytotoxicity of the compounds is the major property determining their anti-lymphoma efficacy in vitro. One of the parameters used, as the basis for cytotoxicity assays, is the metabolic activity of viable cells. For example 2, a microtiter assay, which uses (3-(4,5-dimethylthiazol-2-yl)-2,5-diphenyltetrazolium bromide (MTT), is widely used to quantitate cell proliferation and cytotoxicity. This assay is widely used in drug screening programs and in chemosensitivity testing. Because only metabolically active living cells reduce MTT to correspond purple formazan dye, these assays detect viable cells exclusively. The quantity of reduced MTT corresponds to the number of vital cells in the culture.
(§2) The compounds were assayed using the following lymphoma cell lines: HT (diffuse large B-cell lymphoma, subtype—germinal center B-cell), OCI-LY2 (diffuse large B-cell lymphoma, subtype—germinal center B-cell), MINO (mantle cell lymphoma). All cell lines were grown in RPMI medium supplemented with fetal bovine serum and glutamine and maintained at 37° C. in a humidified atmosphere with 5% CO2. For cytotoxicity assays, 5000-10000 cells were seeded into each well of 96 well plate, allowed to stabilize for at least 8 h and then tested compounds were added at various concentrations ranging from 100 to 0.01 μM in triplicates. After three days, MTT solution (5 mg/ml; Sigma, St. Louis, USA) was added to cells and medium was replaced with DMSO after five hours. The absorbance was measured at 620 nm by employing a microplate reader. MTT assays were repeated 3 times for each drug application and untreated cells were used as reference. The GI50 values, drug concentrations lethal to 50% of the cells, were calculated from the obtained dose response curves.

[2] = target: T1, CDK2/Cyclin E (Homo sapiens, UniProt P24941); test: CDK2/Cyclin E kinase inhibition, [γ-33P]ATP, histone H1; assay type: biochemical
T1 construct: made in house; host or cells: Sf9 insect cells (baculovirus)
Method: CDK2/Cyclin E and CDK1/Cyclin B kinases were produced in Sf9 insect cells via baculoviral infection and purified on a Ni-NTA column (Qiagen). CDK4/Cyclin D1, CDK5/p35NCK, CDK7/Cyclin H/MAT1 and CDK9/Cyclin T1 were purchased from ProQinase GmbH. […] The reactions were stopped by adding 5 mL of 3% aq. H3PO4. Aliquots were spotted onto P-81 phosphocellulose (Whatman), washed 3 times with 0.5% aq. H3PO4 and finally air-dried. Kinase inhibition was quantified using a FLA-7000 digital image analyzer (Fujifilm). The concentration of the test compounds required to decrease the CDK activity by 50% was determined from dose response curves and designated as IC50.

[3] = tested on: OCI-LY2 (diffuse large B-cell lymphoma, subtype—germinal center B-cell); test: MTT cytotoxicity assay, OCI-LY2 lymphoma cell line; assay type: cell-based; conditions: 72 h, OCI-LY2 cells, three days, read-out: Lymphoma cell lines GI50, OCI-LY2
From the text: as §1, §2

[4] = tested on: MINO (mantle cell lymphoma); test: MTT cytotoxicity assay, MINO lymphoma cell line; assay type: cell-based; conditions: Homo sapiens, 72 h, MINO cells, three days, read-out: Lymphoma cell lines GI50, MINO
From the text: as §1, §2

[5] = target: T2, CDK4/Cyclin D1 (Homo sapiens, UniProt P11802); test: CDK4/Cyclin D1 kinase inhibition, [γ-33P]ATP, […] peptide; assay type: biochemical; conditions: CDK panel, tested at least in duplicates
T2 construct: purchased ProQinase GmbH
Method: (§3) CDK2/Cyclin E and CDK1/Cyclin B kinases were produced in Sf9 insect cells via baculoviral infection and purified on a Ni-NTA column (Qiagen). CDK4/Cyclin D1, CDK5/p35NCK, CDK7/Cyclin H/MAT1 and CDK9/Cyclin T1 were purchased from ProQinase GmbH. The kinases were assayed with 1 mg/mL histone H1 (for CDK1/2/5) or (YSPTSPS)2 KK peptide (for CDK7/CDK9) or […] peptide (for CDK4) in the presence of […] (for CDK1/2/4/5/7/9), 0.05 mCi [γ-33P]ATP and of the test compound in a final volume of […], all in a reaction buffer (60 mM HEPES, NaOH, pH 7.5, 3 mM MgCl2, 3 mM MnCl2, 3 mM Na-orthovanadate, 1.2 mM DTT, 2.5 mg/50 ml PEG20.000). The reactions were stopped by adding […] of 3% aq. H3PO4. Aliquots were spotted onto P-81 phosphocellulose (Whatman), washed 3 times with 0.5% aq. H3PO4 and finally air-dried. Kinase inhibition was quantified using a FLA-7000 digital image analyzer (Fujifilm). The concentration of the test compounds required to decrease the CDK activity by 50% was determined from dose response curves and designated as IC50.

[6] = target: T3, CDK9/Cyclin T1 (Homo sapiens, UniProt P50750); test: CDK9/Cyclin T1 kinase inhibition, [γ-33P]ATP, (YSPTSPS)2 KK peptide; assay type: biochemical; conditions: CDK panel, tested at least in duplicates
T3 construct: purchased ProQinase GmbH
Method: as §3

[7] = Table 3, read-out: Enzyme inhibition IC50 CDK2/E
[8] = Table 4, read-out: CDK2/E inhibition IC50

T3 sequence (P50750 whole entry): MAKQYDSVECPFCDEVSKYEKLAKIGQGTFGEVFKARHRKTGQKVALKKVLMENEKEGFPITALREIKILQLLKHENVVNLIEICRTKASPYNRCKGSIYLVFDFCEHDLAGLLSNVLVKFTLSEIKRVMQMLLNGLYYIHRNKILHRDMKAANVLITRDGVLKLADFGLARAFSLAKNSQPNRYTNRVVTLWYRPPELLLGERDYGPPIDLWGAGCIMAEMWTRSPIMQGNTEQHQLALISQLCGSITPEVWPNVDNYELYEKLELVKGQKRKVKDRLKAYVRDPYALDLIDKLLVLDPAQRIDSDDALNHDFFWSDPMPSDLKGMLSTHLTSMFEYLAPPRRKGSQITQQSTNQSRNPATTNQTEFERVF
T3 sequence (O60563 whole entry partner): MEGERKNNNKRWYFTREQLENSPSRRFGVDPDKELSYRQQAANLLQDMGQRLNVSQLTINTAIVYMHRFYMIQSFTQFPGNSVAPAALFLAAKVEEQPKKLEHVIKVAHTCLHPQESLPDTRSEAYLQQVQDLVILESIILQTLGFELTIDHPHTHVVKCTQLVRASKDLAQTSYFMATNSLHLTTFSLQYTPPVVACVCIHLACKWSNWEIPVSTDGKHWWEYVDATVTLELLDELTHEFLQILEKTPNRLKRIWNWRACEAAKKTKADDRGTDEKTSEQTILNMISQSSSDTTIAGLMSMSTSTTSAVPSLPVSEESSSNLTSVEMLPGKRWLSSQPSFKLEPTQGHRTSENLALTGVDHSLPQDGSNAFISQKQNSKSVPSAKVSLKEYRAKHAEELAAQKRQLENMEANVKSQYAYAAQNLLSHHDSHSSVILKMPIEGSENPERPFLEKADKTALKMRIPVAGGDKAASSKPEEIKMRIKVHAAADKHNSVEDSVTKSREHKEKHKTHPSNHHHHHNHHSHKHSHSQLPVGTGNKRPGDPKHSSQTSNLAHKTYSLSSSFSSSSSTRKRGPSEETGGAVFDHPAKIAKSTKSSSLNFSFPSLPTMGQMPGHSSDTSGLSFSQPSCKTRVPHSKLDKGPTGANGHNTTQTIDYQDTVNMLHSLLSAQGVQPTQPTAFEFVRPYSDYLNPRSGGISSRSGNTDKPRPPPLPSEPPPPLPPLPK
T2 sequence (P11802 whole entry): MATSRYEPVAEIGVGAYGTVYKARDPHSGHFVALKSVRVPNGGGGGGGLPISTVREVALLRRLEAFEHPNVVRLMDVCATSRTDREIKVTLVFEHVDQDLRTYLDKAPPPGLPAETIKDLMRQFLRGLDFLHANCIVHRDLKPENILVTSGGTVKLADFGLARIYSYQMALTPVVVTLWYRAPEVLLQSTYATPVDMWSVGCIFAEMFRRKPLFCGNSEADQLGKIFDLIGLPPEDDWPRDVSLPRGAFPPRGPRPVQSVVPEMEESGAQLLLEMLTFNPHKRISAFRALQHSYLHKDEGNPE
T2 sequence (P24385 whole entry partner): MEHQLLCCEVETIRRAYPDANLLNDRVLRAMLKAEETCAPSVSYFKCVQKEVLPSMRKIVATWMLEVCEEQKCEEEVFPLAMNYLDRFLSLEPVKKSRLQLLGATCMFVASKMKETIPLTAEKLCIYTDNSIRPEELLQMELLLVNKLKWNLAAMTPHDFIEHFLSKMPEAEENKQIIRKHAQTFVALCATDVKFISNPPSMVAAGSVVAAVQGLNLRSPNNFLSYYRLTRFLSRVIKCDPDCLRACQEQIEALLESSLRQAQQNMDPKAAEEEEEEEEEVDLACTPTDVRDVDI

IC50 [2, 7]	IC50 [2, 8]	SMILES	GI50 [1]	GI50 [3]	GI50 [4]	further results
4 nM		CC(C)c1n[nH]c2c(NCc3ccc(-c4ccccn4)cc3)nc(SCCN)nc12 [Compound 4.9, 5-(2-Amino-1-ethyl)thio-3-isopropyl-7-[4-(2-pyridyl)benzyl]amino-1(2)H-pyrazolo[4,3-d]pyrimidine]	0.04 µM	0.046 µM	0.029 µM	IC50 ([2]; CDK panel, tested at least in duplicates, read-out: IC50 CDK2): 5 ± 1 nM
	43 nM	CC(C)c1[nH]nc2c(NCc3ccc(-n4cccn4)cc3)nc(SCCN(C)C)nc12 [Compound 4.95]				
	8 nM	CC(C)c1[nH]nc2c(NCc3ccc(-n4cccn4)cc3)nc(SCC(C)(C)O)nc12 [Compound 4.93, 5-(2-Hydroxy-2-methyl-1-propyl)thio-3-isopropyl-7-[4-(pyrazol-1-yl)benzyl]amino-1(2)H-pyrazolo[4,3-d]pyrimidin]				

Second part, the compound before the results:

SMILES	IC50 [2, 7]	IC50 [2, 8]	GI50 [1]	GI50 [3]	GI50 [4]	further results
CC(C)c1n[nH]c2c(NCc3ccc(-c4ccccn4)cc3)nc(SC3OC(CO)C(O)C(O)C3O)nc12 [Compound 4.22, 5-β-D-Thioglucosid-3-isopropyl-7-[4-(2-pyridyl)benzyl]amino-1(2)H-pyrazolo[4,3-d]pyrimidine]	363 nM		8.07 µM	25.2 µM	21.6 µM	
CC(C)c1n[nH]c2c(NCc3ccc(-c4cnccn4)cc3)nc(SCCN)nc12 [Compound 4.139, 5-(2-Amino-1-ethyl)thio-3-isopropyl-7-[4-(pyrazin-2-yl)benzyl]amino-1(2)H-pyrazolo[4,3-d]pyrimidin]		4 nM				
CC[C@@H](CO)Nc1nc(NCc2ccc(-c3ccccn3)cc2)c2ncn(C(C)C)c2n1 [CR8, (2S)-2-[[9-propan-2-yl-6-[(4-pyridine-2-ylphenyl)methylamino]purin-2-yl]amino]butan-1-ol]						IC50 [5]: 26.1 µM; IC50 [6]: 272 ± 38 nM

— US11186583B2, “5-alkylthio-7-[(4-arylbenzyl)amino]-1(2)H-pyrazolo[4,3-d]pyrimidines for treatment of lymphoma” (UNIVERZITA PALACKEHO V OLOMOUCI, priority 2018, dated 2021)
